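In this assay, cells in 96-well plates receive the compound at five concentrations for 48 hours. Endpoints are linearly interpolated between the surrounding concentrations. GI50: concentration for 50% inhibition of growth. TGI denotes the concentration required for complete inhibition of growth.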
Legend:
Experiment in all cases: NCI anticancer screen, dose series, 48 h
COLO 205 colon = test system: COLO 205 colon
SNB-19 CNS = test system: SNB-19 CNS
UACC-257 melanoma = test system: UACC-257 melanoma
OVCAR-5 ovarian = test system: OVCAR-5 ovarian
SW-620 colon = test system: SW-620 colon
NCI-H23 lung = test system: NCI-H23 lung
NCI-H226 lung = test system: NCI-H226 lung
NCI-H460 lung = test system: NCI-H460 lung
MALME-3M melanoma = test system: MALME-3M melanoma
SK-MEL-2 melanoma = test system: SK-MEL-2 melanoma
OVCAR-4 ovarian = test system: OVCAR-4 ovarian
UO-31 renal = test system: UO-31 renal
DU-145 prostate = test system: DU-145 prostate
HCT-116 colon = test system: HCT-116 colon
TK-10 renal = test system: TK-10 renal
HL-60(TB) leukemia = test system: HL-60(TB) leukemia
RPMI-8226 leukemia = test system: RPMI-8226 leukemia
EKVX NSCLC = test system: EKVX NSCLC
HOP-62 NSCLC = test system: HOP-62 NSCLC
MCF7 breast = test system: MCF7 breast
U251 CNS = test system: U251 CNS
SK-MEL-5 melanoma = test system: SK-MEL-5 melanoma
PC-3 prostate = test system: PC-3 prostate
KM12 colon = test system: KM12 colon
SR leukemia = test system: SR leukemia
SK-OV-3 ovarian = test system: SK-OV-3 ovarian
M14 melanoma = test system: M14 melanoma
LOX IMVI melanoma = test system: LOX IMVI melanoma
HCT-15 colon = test system: HCT-15 colon
ACHN renal = test system: ACHN renal
OVCAR-3 ovarian = test system: OVCAR-3 ovarian
T-47D breast = test system: T-47D breast
HS 578T breast = test system: HS 578T breast
HT29 colon = test system: HT29 colon
NCI/ADR-RES ovarian = test system: NCI/ADR-RES ovarian
IGROV1 ovarian = test system: IGROV1 ovarian
NCI-H522 lung = test system: NCI-H522 lung
SN12C renal = test system: SN12C renal
MOLT-4 leukemia = test system: MOLT-4 leukemia
K-562 leukemia = test system: K-562 leukemia
OVCAR-8 ovarian = test system: OVCAR-8 ovarian
RXF 393 renal = test system: RXF 393 renal
SF-539 CNS = test system: SF-539 CNS
BT-549 breast = test system: BT-549 breast
CCRF-CEM leukemia = test system: CCRF-CEM leukemia
HCC-2998 colon = test system: HCC-2998 colon
CAKI-1 renal = test system: CAKI-1 renal
SF-295 CNS = test system: SF-295 CNS
MDA-MB-435 = test system: MDA-MB-435
A498 renal = test system: A498 renal
HOP-92 NSCLC = test system: HOP-92 NSCLC
UACC-62 melanoma = test system: UACC-62 melanoma
SK-MEL-28 melanoma = test system: SK-MEL-28 melanoma
SNB-75 CNS = test system: SNB-75 CNS
SF-268 CNS = test system: SF-268 CNS
MDA-MB-231 breast = test system: MDA-MB-231 breast
786-0 renal = test system: 786-0 renal
A549 NSCLC = test system: A549 NSCLC

Structure (SMILES): COc1cc2c3c(n(CCCN)c(=O)c2cc1OC)-c1ccc(N(C)C)cc1C3=O
- GI50 (COLO 205 colon): 17.4 µM
- TGI (COLO 205 colon): 35.5 µM
- GI50 (SNB-19 CNS): 16.9 µM
- TGI (SNB-19 CNS): 33.7 µM
- GI50 (UACC-257 melanoma): 23.5 µM
- TGI (UACC-257 melanoma): 48.3 µM
- GI50 (OVCAR-5 ovarian): 17 µM
- TGI (OVCAR-5 ovarian): 31.4 µM
- GI50 (SW-620 colon): 1.95 µM
- TGI (SW-620 colon): 3.76 µM
- GI50 (NCI-H23 lung): 16.6 µM
- TGI (NCI-H23 lung): 30.5 µM
- GI50 (NCI-H226 lung): 23.9 µM
- TGI (NCI-H226 lung): 49.5 µM
- GI50 (NCI-H460 lung): 4.45 µM
- TGI (NCI-H460 lung): 26.1 µM
- GI50 (MALME-3M melanoma): 9.33 µM
- TGI (MALME-3M melanoma): 29.9 µM
- GI50 (SK-MEL-2 melanoma): 19.6 µM
- TGI (SK-MEL-2 melanoma): 38.1 µM
- GI50 (OVCAR-4 ovarian): 17.5 µM
- TGI (OVCAR-4 ovarian): 33.8 µM
- GI50 (UO-31 renal): 16.9 µM
- TGI (UO-31 renal): 36.1 µM
- GI50 (DU-145 prostate): 2.38 µM
- TGI (DU-145 prostate): 6.6 µM
- GI50 (HCT-116 colon): 2.42 µM
- TGI (HCT-116 colon): 6.07 µM
- GI50 (TK-10 renal): 18.5 µM
- TGI (TK-10 renal): 37.2 µM
- GI50 (HL-60(TB) leukemia): 21.6 µM
- TGI (HL-60(TB) leukemia): 47.7 µM
- GI50 (RPMI-8226 leukemia): 2 µM
- TGI (RPMI-8226 leukemia): 4.68 µM
- GI50 (EKVX NSCLC): 16.7 µM
- TGI (EKVX NSCLC): 32 µM
- GI50 (HOP-62 NSCLC): 16.8 µM
- TGI (HOP-62 NSCLC): 31.9 µM
- GI50 (MCF7 breast): 14.8 µM
- TGI (MCF7 breast): 36.7 µM
- GI50 (U251 CNS): 16.5 µM
- TGI (U251 CNS): 31.1 µM
- GI50 (SK-MEL-5 melanoma): 6.4 µM
- TGI (SK-MEL-5 melanoma): 13.7 µM
- GI50 (PC-3 prostate): 1.69 µM
- TGI (PC-3 prostate): 3.14 µM
- GI50 (KM12 colon): 2.34 µM
- TGI (KM12 colon): 4.85 µM
- GI50 (SR leukemia): 18.7 µM
- TGI (SR leukemia): 74.5 µM
- GI50 (SK-OV-3 ovarian): 21 µM
- TGI (SK-OV-3 ovarian): 42.7 µM
- GI50 (M14 melanoma): 16.4 µM
- TGI (M14 melanoma): 32.6 µM
- GI50 (LOX IMVI melanoma): 2.05 µM
- TGI (LOX IMVI melanoma): 4.45 µM
- GI50 (HCT-15 colon): 13.9 µM
- TGI (HCT-15 colon): 27.1 µM
- GI50 (ACHN renal): 17.4 µM
- TGI (ACHN renal): 31.5 µM
- GI50 (OVCAR-3 ovarian): 20.4 µM
- TGI (OVCAR-3 ovarian): 42.2 µM
- GI50 (T-47D breast): 20 µM
- TGI (T-47D breast): 41 µM
- GI50 (HS 578T breast): 27.9 µM
- TGI (HS 578T breast): 61.5 µM
- GI50 (HT29 colon): 1.54 µM
- TGI (HT29 colon): 2.94 µM
- GI50 (NCI/ADR-RES ovarian): 13.9 µM
- TGI (NCI/ADR-RES ovarian): 43.2 µM
- GI50 (IGROV1 ovarian): 14.8 µM
- TGI (IGROV1 ovarian): 47 µM
- GI50 (NCI-H522 lung): 17.3 µM
- TGI (NCI-H522 lung): 38.1 µM
- GI50 (SN12C renal): 16.9 µM
- TGI (SN12C renal): 32 µM
- GI50 (MOLT-4 leukemia): 7.01 µM
- TGI (MOLT-4 leukemia): 19.5 µM
- GI50 (K-562 leukemia): 4.09 µM
- TGI (K-562 leukemia): 17.4 µM
- GI50 (OVCAR-8 ovarian): 7.22 µM
- TGI (OVCAR-8 ovarian): 33.7 µM
- GI50 (RXF 393 renal): 6.53 µM
- TGI (RXF 393 renal): 14.8 µM
- GI50 (SF-539 CNS): 1.92 µM
- TGI (SF-539 CNS): 3.66 µM
- GI50 (BT-549 breast): 14.5 µM
- TGI (BT-549 breast): 28.8 µM
- GI50 (CCRF-CEM leukemia): 1.98 µM
- TGI (CCRF-CEM leukemia): 5.16 µM
- GI50 (HCC-2998 colon): 3.29 µM
- TGI (HCC-2998 colon): 7.68 µM
- GI50 (CAKI-1 renal): 22.7 µM
- TGI (CAKI-1 renal): 47.5 µM
- GI50 (SF-295 CNS): 17.6 µM
- TGI (SF-295 CNS): 37.9 µM
- GI50 (MDA-MB-435): 22.6 µM
- TGI (MDA-MB-435): 46.3 µM
- GI50 (A498 renal): 21 µM
- TGI (A498 renal): 37.2 µM
- GI50 (HOP-92 NSCLC): 6.8 µM
- TGI (HOP-92 NSCLC): 22.8 µM
- GI50 (UACC-62 melanoma): 21.6 µM
- TGI (UACC-62 melanoma): 42.2 µM
- GI50 (SK-MEL-28 melanoma): 12.3 µM
- TGI (SK-MEL-28 melanoma): 27.6 µM
- GI50 (SNB-75 CNS): 22.5 µM
- TGI (SNB-75 CNS): 46 µM
- GI50 (SF-268 CNS): 16.1 µM
- TGI (SF-268 CNS): 46.1 µM
- GI50 (MDA-MB-231 breast): 11.9 µM
- TGI (MDA-MB-231 breast): 25.5 µM
- GI50 (786-0 renal): 5.29 µM
- TGI (786-0 renal): 11.8 µM
- GI50 (A549 NSCLC): 18 µM
- TGI (A549 NSCLC): 52 µM
